Experimental data taken from the supplement of paper PMC6045584.
± gives the standard deviation of the averaged measurements.

Tests used:
CELECOXIB [1] = compound: T1, Cc1ccc(-c2cc(C(F)(F)F)nn2-c2ccc(S(N)(=O)=O)cc2)cc1 [CELECOXIB]; assay: surviving fraction relative to DMSO-only wells; higher = less growth inhibition; details: exposure time: 5 days
In short: (§1)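 Tumour cell lines in log phase were plated in 384-well plates at 250–500 cells per well, then, after 24 hours, exposed continuously for five days to inhibitors at 0.5, 1, 5, 10, 50, 100, 500 and 1000 nM. Viability came from CellTiter-Glo luminescence, and surviving fraction is that signal normalised to the median of DMSO-only wells. Plates were read after 10 minutes at room temperature, and each line, screened three times, was kept only when replicate Pearson r was >0.7 and median Z' was >0.3.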

GEFITINIB [2] = compound: T2, COc1cc2ncnc(Nc3ccc(F)c(Cl)c3)c2cc1OCCCN1CCOCC1 [GEFITINIB]; assay: as above; details: exposure time: 5 days
In short: as §1

[3] = compound: CC(=O)NCC(=O)N1[C@@H]2CC[C@H]1c1ccc(Nc3ncc(C(F)(F)F)c(NC4CCC4)n3)cc12; assay: as above; details: exposure time: 5 days
In short: as §1

CARBOPLATIN [4] = compound: T3, O=C(O)C1(C(=O)O)CCC1.[NH2-].[NH2-].[Pt+2] [CARBOPLATIN]; assay: as above; details: exposure time: 5 days
In short: as §1

PACLITAXEL [5] = compound: T4, CC(=O)O[C@H]1C(=O)[C@@]2(C)[C@H]([C@H](OC(=O)c3ccccc3)[C@]3(O)C[C@H](OC(=O)[C@H](O)[C@@H](NC(=O)c4ccccc4)c4ccccc4)C(C)=C1C3(C)C)[C@]1(OC(C)=O)CO[C@@H]1C[C@@H]2O [PACLITAXEL]; assay: as above; details: exposure time: 5 days
In short: as §1

YM155 [6] = compound: T5, COCC[n+]1c2c(n(Cc3cnccn3)c1C)C(=O)c1ccccc1C2=O [YM155]; assay: as above; details: exposure time: 5 days
In short: as §1

CAMPTOTHECIN [7] = compound: T6, CC[C@@]1(O)C(=O)OCc2c1cc1n(c2=O)Cc2cc3ccccc3nc2-1 [CAMPTOTHECIN]; assay: as above; details: exposure time: 5 days
In short: as §1

OSI-906 [8] = compound: T7, C[C@]1(O)C[C@@H](c2nc(-c3ccc4ccc(-c5ccccc5)nc4c3)c3c(N)nccn32)C1 [OSI-906]; assay: as above; details: exposure time: 5 days
In short: as §1

[9] = compound: CC(=O)c1c(C)c2cnc(Nc3ccc(N4CCNCC4)cn3)nc2n(C2CCCC2)c1=O; assay: as above; details: exposure time: 5 days
In short: as §1

CELECOXIB [10] = compound: T1, CELECOXIB; assay: area under dose-response curve of surviving fraction (unscaled, Aref=0) (surviving fraction x log10(nM)); higher = more resistant; details: exposure time: 5 days; dose range 0.5-1000 nM
In short: (§2)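 Surviving fractions were fitted by 3-parameter logistic regression in the drc R package to give dose-response survival curves. They came from tumour cell lines treated for five days with eight inhibitor concentrations from 0.5 to 1000 nM and read by CellTiter-Glo luminescence against DMSO-only wells. The area under the curve is the unscaled activity area. It was calculated over log10 dose with Aref = 0.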

GEFITINIB [11] = compound: T2, GEFITINIB; assay: as above; details: exposure time: 5 days; dose range 0.5-1000 nM
In short: as §2

[12] = compound: CC(=O)NCC(=O)N1[C@@H]2CC[C@H]1c1ccc(Nc3ncc(C(F)(F)F)c(NC4CCC4)n3)cc12; assay: as above; details: exposure time: 5 days; dose range 0.5-1000 nM
In short: as §2

CARBOPLATIN [13] = compound: T3, CARBOPLATIN; assay: as above; details: exposure time: 5 days; dose range 0.5-1000 nM
In short: as §2

PACLITAXEL [14] = compound: T4, PACLITAXEL; assay: as above; details: exposure time: 5 days; dose range 0.5-1000 nM
In short: as §2

YM155 [15] = compound: T5, YM155; assay: as above; details: exposure time: 5 days; dose range 0.5-1000 nM
In short: as §2

CAMPTOTHECIN [16] = compound: T6, CAMPTOTHECIN; assay: as above; details: exposure time: 5 days; dose range 0.5-1000 nM
In short: as §2

OSI-906 [17] = compound: T7, OSI-906; assay: as above; details: exposure time: 5 days; dose range 0.5-1000 nM
In short: as §2

[18] = compound: CC(=O)c1c(C)c2cnc(Nc3ccc(N4CCNCC4)cn3)nc2n(C2CCCC2)c1=O; assay: as above; details: exposure time: 5 days; dose range 0.5-1000 nM
In short: as §2

HOS BONE
surviving fraction (CELECOXIB [1]; 0.5 nM): 1 ± 0.013
surviving fraction (CELECOXIB [1]; 1 nM): 1.028 ± 0.0093
surviving fraction (CELECOXIB [1]; 5 nM): 1.02 ± 0.012
surviving fraction (CELECOXIB [1]; 10 nM): 1.018 ± 0.0023
surviving fraction (CELECOXIB [1]; 50 nM): 1.06 ± 0.028
surviving fraction (CELECOXIB [1]; 100 nM): 1.08 ± 0.031
surviving fraction (CELECOXIB [1]; 500 nM): 1.06 ± 0.022
surviving fraction (CELECOXIB [1]; 1000 nM): 1.024 ± 0.007
surviving fraction (GEFITINIB [2]; 0.5 nM): 1.01 ± 0.02
surviving fraction (GEFITINIB [2]; 1 nM): 1.034 ± 0.0087
surviving fraction (GEFITINIB [2]; 5 nM): 1.041 ± 0.01
surviving fraction (GEFITINIB [2]; 10 nM): 1.04 ± 0.032
surviving fraction (GEFITINIB [2]; 50 nM): 1.06 ± 0.033
surviving fraction (GEFITINIB [2]; 100 nM): 1.07 ± 0.031
surviving fraction (GEFITINIB [2]; 500 nM): 1.01 ± 0.021
surviving fraction (GEFITINIB [2]; 1000 nM): 0.973 ± 0.013
surviving fraction ([3]; 0.5 nM): 1.03 ± 0.013
surviving fraction ([3]; 1 nM): 1.013 ± 0.0087
surviving fraction ([3]; 5 nM): 1.01 ± 0.025
surviving fraction ([3]; 10 nM): 1.006 ± 0.0098
surviving fraction ([3]; 50 nM): 0.719 ± 0.025
surviving fraction ([3]; 100 nM): 0.675 ± 0.025
surviving fraction ([3]; 500 nM): 0.585 ± 0.03
surviving fraction ([3]; 1000 nM): 0.485 ± 0.012
surviving fraction (CARBOPLATIN [4]; 0.5 nM): 1.06 ± 0.013
surviving fraction (CARBOPLATIN [4]; 1 nM): 1.05 ± 0.02
surviving fraction (CARBOPLATIN [4]; 5 nM): 1.04 ± 0.03
surviving fraction (CARBOPLATIN [4]; 10 nM): 1.04 ± 0.02
surviving fraction (CARBOPLATIN [4]; 50 nM): 1.15 ± 0.05
surviving fraction (CARBOPLATIN [4]; 100 nM): 1.11 ± 0.033
surviving fraction (CARBOPLATIN [4]; 500 nM): 1.07 ± 0.02
surviving fraction (CARBOPLATIN [4]; 1000 nM): 1.068 ± 0.0086
surviving fraction (PACLITAXEL [5]; 0.5 nM): 1.01 ± 0.011
surviving fraction (PACLITAXEL [5]; 1 nM): 0.95 ± 0.01
surviving fraction (PACLITAXEL [5]; 5 nM): 0.085 ± 0.003
surviving fraction (PACLITAXEL [5]; 10 nM): 0.0507 ± 0.004
surviving fraction (PACLITAXEL [5]; 50 nM): 0.0357 ± 0.004
surviving fraction (PACLITAXEL [5]; 100 nM): 0.025 ± 0.001
surviving fraction (PACLITAXEL [5]; 500 nM): 0.0223 ± 0.0011
surviving fraction (PACLITAXEL [5]; 1000 nM): 0.0217 ± 0.0015
surviving fraction (YM155 [6]; 0.5 nM): 0.923 ± 0.0036
surviving fraction (YM155 [6]; 1 nM): 0.503 ± 0.017
surviving fraction (YM155 [6]; 5 nM): 0.075 ± 0.0078
surviving fraction (YM155 [6]; 10 nM): 0.0527 ± 0.0038
surviving fraction (YM155 [6]; 50 nM): 0.0267 ± 0.00058
surviving fraction (YM155 [6]; 100 nM): 0.0197 ± 0.00058
surviving fraction (YM155 [6]; 500 nM): 0.0193 ± 0.00058
surviving fraction (YM155 [6]; 1000 nM): 0.0243 ± 0.00058
surviving fraction (CAMPTOTHECIN [7]; 0.5 nM): 0.902 ± 0.0096
surviving fraction (CAMPTOTHECIN [7]; 1 nM): 0.889 ± 0.017
surviving fraction (CAMPTOTHECIN [7]; 5 nM): 0.758 ± 0.011
surviving fraction (CAMPTOTHECIN [7]; 10 nM): 0.25 ± 0.021
surviving fraction (CAMPTOTHECIN [7]; 50 nM): 0.1 ± 0.0059
surviving fraction (CAMPTOTHECIN [7]; 100 nM): 0.056 ± 0.005
surviving fraction (CAMPTOTHECIN [7]; 500 nM): 0.0223 ± 0.00058
surviving fraction (CAMPTOTHECIN [7]; 1000 nM): 0.0237 ± 0.00058
surviving fraction (OSI-906 [8]; 0.5 nM): 0.9287 ± 0.0055
surviving fraction (OSI-906 [8]; 1 nM): 0.9223 ± 0.0065
surviving fraction (OSI-906 [8]; 5 nM): 0.939 ± 0.019
surviving fraction (OSI-906 [8]; 10 nM): 0.911 ± 0.014
surviving fraction (OSI-906 [8]; 50 nM): 0.965 ± 0.02
surviving fraction (OSI-906 [8]; 100 nM): 0.963 ± 0.013
surviving fraction (OSI-906 [8]; 500 nM): 0.901 ± 0.013
surviving fraction (OSI-906 [8]; 1000 nM): 0.88 ± 0.031
surviving fraction ([9]; 0.5 nM): 1.02 ± 0.068
surviving fraction ([9]; 1 nM): 1.03 ± 0.021
surviving fraction ([9]; 5 nM): 1.01 ± 0.022
surviving fraction ([9]; 10 nM): 1.04 ± 0.034
surviving fraction ([9]; 50 nM): 1.114 ± 0.0042
surviving fraction ([9]; 100 nM): 1.07 ± 0.06
surviving fraction ([9]; 500 nM): 1.05 ± 0.016
surviving fraction ([9]; 1000 nM): 1.08 ± 0.057
area under dose-response curve (CELECOXIB [10]): 3.42
area under dose-response curve (GEFITINIB [11]): 3.42
area under dose-response curve [12]: 2.69
area under dose-response curve (CARBOPLATIN [13]): 3.54
area under dose-response curve (PACLITAXEL [14]): 0.728
area under dose-response curve (YM155 [15]): 0.418
area under dose-response curve (CAMPTOTHECIN [16]): 1.25
area under dose-response curve (OSI-906 [17]): 3.06
area under dose-response curve [18]: 3.47
